By IC50 is commonly meant the midpoint of a concentration-inhibition curve.

SMILES strings stand for the structures.

GDP-bound KRAS protein (aa 1-169), containing both G12C and C118A amino acid substitutions, sequence (P01116 other isoform, or with tags, fused parts or gaps G12C/C118A): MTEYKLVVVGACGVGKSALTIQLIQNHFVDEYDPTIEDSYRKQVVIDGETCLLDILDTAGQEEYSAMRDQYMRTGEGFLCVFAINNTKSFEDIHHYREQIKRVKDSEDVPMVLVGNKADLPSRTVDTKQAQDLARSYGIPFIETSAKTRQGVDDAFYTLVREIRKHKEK

For one test, the target named is GDP-bound KRAS protein (aa 1-169), containing both G12C and C118A amino acid substitutions (Homo sapiens (Human), UniProt P01116, C118A/G12C). In words: Coupled Nucleotide Exchange Assay. The note with it: read-out: Coupled Exchange IC50 (5 min); 5 min compound pre-incubation. It counts as biochemical. As to the method:
For compounds in Table 9, the following assay conditions were employed:
Coupled Nucleotide Exchange Assay:
The assay plates were then read on a PerkinElmer EnVision Multilabel Reader, using AlphaScreen® technology, and data were analyzed using a 4-parameter logistic model to calculate IC50 values.
Consider `C=CC(=O)N1CC(NC(=O)Cn2ccc3cc(Br)ccc32)C1` [Example 180], for which the IC50 was determined as 201 µM.

`C=CC(=O)N1CC(NC(=O)Cn2ccc3cc(Br)c(C)cc32)C1` [Example 186]: the IC50 was greater than 250 µM.

For the compound `C=CC(=O)N1CC(NC(=O)Cn2ccc3cc(Cl)ccc32)C1` [Example 187], the IC50 is greater than 250 µM.

`C=CC(=O)N1CC(NC(=O)Cn2ccc3cc(Br)cc(C)c32)C1` [Example 190]: the IC50 amounted to 193 µM.

On to `C=CC(=O)N1CC(NC(=O)Cn2cc(C)c3cc(Br)ccc32)C1` [Example 194], for which the IC50 stood at 151 µM.

The same test, now with this note: read-out: Coupled Exchange IC50 (2 h); 2 h compound pre-incubation.
Regarding `C=CC(=O)N1CC(NC(=O)Cn2ccc3cc(Br)ccc32)C1` [Example 180], the IC50 is greater than 250 µM.

Consider `C=CC(=O)N1CC(NC(=O)Cn2c(C(=O)OC)cc3cc(Br)ccc32)C1` [Example 181], for which the IC50 is greater than 250 µM.

On to `C=CC(=O)N1CC(NC(=O)Cn2ccc3ccc(Br)cc32)C1` [Example 182], for which the IC50 is greater than 250 µM.

`C=CC(=O)N1CC(NC(=O)Cn2ccc3ccccc32)C1` [Example 183]: the IC50 is greater than 250 µM.

Take `C=CC(=O)N1CC(NC(=O)Cn2c(C=O)cc3cc(Br)ccc32)C1` [Example 185]: the IC50 was greater than 250 µM.

Consider `C=CC(=O)N1CC(NC(=O)Cn2ccc3cc(Br)c(C)cc32)C1` [Example 186], for which the IC50 was found to be 26.6 µM.

Turning to `C=CC(=O)N1CC(NC(=O)Cn2ccc3cc(Cl)ccc32)C1` [Example 187], the half-inhibitory concentration (IC50) was greater than 250 µM.

For the compound `C=CC(=O)N1CC(NC(=O)Cn2ccc3cc(I)ccc32)C1` [Example 188], the half-maximal inhibitory concentration (IC50) was found to be 22.2 µM.

As to `C=CC(=O)N1CC(NC(=O)Cn2c(C(=O)NCCc3ccccc3)cc3cc(Br)ccc32)C1` [Example 189], the IC50 turned out to be 15.6 µM.

Regarding `C=CC(=O)N1CC(NC(=O)Cn2ccc3cc(Br)cc(C)c32)C1` [Example 190], the half-inhibitory concentration (IC50) amounted to 16 µM.

In the case of `C=CC(=O)N1CC(NC(=O)Cn2ccc3cc(C#N)ccc32)C1` [Example 191], the IC50 was greater than 250 µM.

As for `C=CC(=O)N1CC(NC(=O)Cn2c(C(=O)NCc3ccccc3)c(I)c3cc(Br)ccc32)C1` [Example 192], the IC50 worked out at 107 µM.

As to `C=CC(=O)N1CC(NC(=O)Cn2c3ccc(Br)cc3c3cc(Br)ccc32)C1` [Example 193], the IC50 was greater than 250 µM.

For the compound `C=CC(=O)N1CC(NC(=O)Cn2cc(C)c3cc(Br)ccc32)C1` [Example 194], the IC50 came to 30.1 µM.

On to `C=CC(=O)N1CC(NC(=O)Cn2c3ccccc3c3ccccc32)C1` [Example 195], for which the IC50 was greater than 250 µM.

Consider `C=CC(=O)N1CC(NC(=O)Cn2c(-c3ncccn3)cc3cc(Cl)ccc32)C1` [Example 196], for which the IC50 was found to be 45.6 µM.

Regarding `C=CC(=O)N1CC(NC(=O)Cn2cc(-c3cnn(C)c3)c3cc(Cl)ccc32)C1` [Example 197], the IC50 turned out to be 24.5 µM.

In the case of `C=CC(=O)N1CC(NC(=O)Cn2ccc3cc(F)ccc32)C1` [Example 198], the concentration for half-maximal inhibition (IC50) was greater than 250 µM.

As to `C=CC(=O)N1CC(NC(=O)Cn2ccc3c(Cl)cccc32)C1` [Example 199], the IC50 is greater than 250 µM.

In the case of `C=CC(=O)N1CC(NC(=O)Cn2cc(C(=O)C(=O)OCC)c3ccccc32)C1` [Example 200], the IC50 is greater than 250 µM.

On to `C=CC(=O)N1CC(NC(=O)Cn2cc(C(=O)C(=O)O)c3ccccc32)C1` [Example 201], for which the IC50 was greater than 250 µM.

As for `C=CC(=O)N1CC(NC(=O)Cn2ccc3ccc(Cl)cc32)C1` [Example 202], the IC50 was greater than 250 µM.

In the case of `C=CC(=O)N1CC(NC(=O)Cn2ccc3cccc(Cl)c32)C1` [Example 203], the IC50 is greater than 250 µM.

The same test, now with this note: read-out: Coupled Exchange IC50 (20 h); 20 h compound pre-incubation.
For the compound `C=CC(=O)N1CC(NC(=O)Cn2ccc3cc(Br)ccc32)C1` [Example 180], the IC50 worked out at 5.5 µM.

Consider `C=CC(=O)N1CC(NC(=O)Cn2c(C(=O)OC)cc3cc(Br)ccc32)C1` [Example 181], for which the 50% inhibitory concentration (IC50) was found to be 6.47 µM.

Take `C=CC(=O)N1CC(NC(=O)Cn2ccc3ccc(Br)cc32)C1` [Example 182]: the IC50 was greater than 250 µM.

As for `C=CC(=O)N1CC(NC(=O)Cn2ccc3ccccc32)C1` [Example 183], the 50% inhibitory concentration (IC50) was greater than 250 µM.

`C=CC(=O)N1CC(NC(=O)Cn2c(C=O)cc3cc(Br)ccc32)C1` [Example 185]: the IC50 was 15.9 µM.

`C=CC(=O)N1CC(NC(=O)Cn2ccc3cc(Br)c(C)cc32)C1` [Example 186]: the 50% inhibitory concentration (IC50) is 4.47 µM.

Regarding `C=CC(=O)N1CC(NC(=O)Cn2ccc3cc(Cl)ccc32)C1` [Example 187], the IC50 was 7.27 µM.

Take `C=CC(=O)N1CC(NC(=O)Cn2ccc3cc(I)ccc32)C1` [Example 188]: the IC50 worked out at 3.71 µM.

With `C=CC(=O)N1CC(NC(=O)Cn2c(C(=O)NCCc3ccccc3)cc3cc(Br)ccc32)C1` [Example 189], the IC50 was determined as 1.62 µM.

With `C=CC(=O)N1CC(NC(=O)Cn2ccc3cc(Br)cc(C)c32)C1` [Example 190], the half-inhibitory concentration (IC50) came to 1.76 µM.

`C=CC(=O)N1CC(NC(=O)Cn2ccc3cc(C#N)ccc32)C1` [Example 191]: the IC50 is greater than 250 µM.

As to `C=CC(=O)N1CC(NC(=O)Cn2c(C(=O)NCc3ccccc3)c(I)c3cc(Br)ccc32)C1` [Example 192], the IC50 stood at 61.7 µM.

In the case of `C=CC(=O)N1CC(NC(=O)Cn2c3ccc(Br)cc3c3cc(Br)ccc32)C1` [Example 193], the IC50 came to 0.39 µM.

Regarding `C=CC(=O)N1CC(NC(=O)Cn2cc(C)c3cc(Br)ccc32)C1` [Example 194], the IC50 stood at 2.23 µM.

Regarding `C=CC(=O)N1CC(NC(=O)Cn2c3ccccc3c3ccccc32)C1` [Example 195], the IC50 stood at 33.5 µM.

Regarding `C=CC(=O)N1CC(NC(=O)Cn2c(-c3ncccn3)cc3cc(Cl)ccc32)C1` [Example 196], the 50% inhibitory concentration (IC50) was found to be 6.09 µM.

On to `C=CC(=O)N1CC(NC(=O)Cn2cc(-c3cnn(C)c3)c3cc(Cl)ccc32)C1` [Example 197], for which the IC50 is 5.51 µM.

Take `C=CC(=O)N1CC(NC(=O)Cn2ccc3cc(F)ccc32)C1` [Example 198]: the IC50 was greater than 250 µM.

For `C=CC(=O)N1CC(NC(=O)Cn2ccc3c(Cl)cccc32)C1` [Example 199], the IC50 was 21.6 µM.

`C=CC(=O)N1CC(NC(=O)Cn2cc(C(=O)C(=O)OCC)c3ccccc32)C1` [Example 200]: the IC50 was greater than 250 µM.

On to `C=CC(=O)N1CC(NC(=O)Cn2cc(C(=O)C(=O)O)c3ccccc32)C1` [Example 201], for which the IC50 is greater than 250 µM.

With `C=CC(=O)N1CC(NC(=O)Cn2ccc3ccc(Cl)cc32)C1` [Example 202], the IC50 is greater than 250 µM.

As to `C=CC(=O)N1CC(NC(=O)Cn2ccc3cccc(Cl)c32)C1` [Example 203], the IC50 was greater than 250 µM.

Values taken from patent US11053226B2, “KRAS G12C inhibitors and methods of using the same” (Amgen Inc., priority 2018, dated 2021).
